In US20240262831A1, “COMPOUNDS AND USE THEREOF FOR TREATMENT OF NEURODEGENERATIVE, DEGENERATIVE AND METABOLIC DISORDERS” (VOVA IDA THERAPEUTICS, INC., priority 2020, published 2024):

Key:
[1] = test system: PK1 neuroblastoma cells exposed to TPrP; assay: cells; conditions: Neuroblastoma cell, 96 h, read-out: TPrP EC50
[2] = Microsomal stability assay, human hepatic microsomes; assay type: in vitro ADME; conditions: 1 mg/ml human hepatic microsomes, 37° C., half-life by LC-MS/MS
Method: The metabolic stability of some test compounds was determined in hepatic human and mouse microsomes. The compound was incubated with 1 mg/ml human or mouse hepatic microsomes at 37° C. with continuous shaking. Aliquots were removed at various time points between 5 minutes and 2 hours and acetonitrile was added to quench the reactions and precipitate the proteins. Samples were then centrifuged through 0.45 μm filter plates and half-lives were determined by LC-MS/MS.

in vitro = conditions: mouse, tox (toxicity noted in TPrP EC50 column)

Structure (SMILES) | EC50 [1] [nM] | Stability in human microsomes ≥15 minutes [2] | EC50 (in vitro) [nM]
Cc1nccn1CCCNC(=O)c1cnn2c(=O)cc(-c3ccc4c(c3)OCO4)[nH]c12 [SR-31105] | 800 |  | 
CCSc1ccc(-c2cc(=S)n3ncc(C(=O)NCCCn4ccnc4C)c3[nH]2)cc1 [SR-34831] | 20 |  | 
CCOc1ccc(-c2cc(=S)c3cccc(C(=O)NCCCn4ccnc4C)c3o2)cc1 [SR-35435] | 54 |  | 
CCOc1ccc(-c2cc(=O)n3ncc(C(=O)NCCCn4ccnc4C)c3n2C)cc1 [SR-32686] | > 2700 |  | 
O=C(NCCCn1ccnc1)c1cnn2c(C(F)(F)F)cc(-c3ccccc3)nc12 [SR-229] | 2 |  | 
Cc1cc(-c2ccc3c(c2)OCO3)nc2c(C(=O)NCCCn3ccnc3C)csc12 [SR-33781] | < 5 |  | 
CCOc1ccc(-c2cc(N3CC[C@@H](NC(C)=O)C3)n3ncc(C(=O)NCCCn4ccnc4C)c3n2)cc1 [SR-32687] | < 5 |  | 
CCOc1ccc(-c2cc(N3CC[C@H](NC(C)=O)C3)n3ncc(C(=O)NCCCn4ccnc4C)c3n2)cc1 [SR-32688] | < 5 |  | 
CCOc1ccc(-c2cc(=O)c3cccc(C(=O)NCCCn4ccnc4C)c3o2)cc1 [SR-35434] | 18 |  | 
CCOc1ccc(-c2cc(=O)n3ncc(C(=O)NCCCn4ccnc4C)c3[nH]2)cc1 [SR-32684] | 900 |  | 
CCOc1ccc(-c2ccn3ccc(C(=O)NCCCn4ccnc4C)c3n2)cc1 [SR-35784] |  | Yes | 
CCOc1ccc(-c2cc(=S)c3scc(C(=O)NCCCn4ccnc4C)c3[nH]2)cc1 [SR-34953] | 6 |  | 
CCOc1ccc(-c2cc(=S)n3ncc(C(=O)NCCCn4ccnc4C)c3[nH]2)cc1 [SR-32685] | 40 |  | 
CCOc1ccc(-c2cc(Cl)n3ncc(C(=O)NCCCn4ccnc4C)c3n2)cc1 [SR-32689] | 20 |  | > 900
